Key:
Assay in all cases: relative viability (nuclei count vs DMSO), 5 days (fraction); higher = more cells survive
[1] = compound: CCn1c(-c2nonc2N)nc2cnc(Oc3cccc(NC(=O)c4ccc(OCCN5CCOCC5)cc4)c3)cc21 + O=C(c1cc(Cc2n[nH]c(=O)c3ccccc23)ccc1F)N1CCN(C(=O)C2CC2)CC1 [Olaparib] (partner 8 µM)
Procedure, shortened: (§1)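 After 5 days of treatment, lung cancer cells in 1536-well plates were fixed and stained in a single step (final 0.05% Triton X-100, 1% formaldehyde, 1 ug/ml Hoechst) and their nuclei counted on 4× images. Treatment had been applied by pin tool the day after seeding as one drug alone or as a fixed anchor-drug dose with five library-drug doses (not always all listed) in √10 steps. Relative viability is the nuclei count of treated wells divided by that of vehicle wells, and values are medians of duplicate plates.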

[2] = compound: CCn1c(-c2nonc2N)nc2cnc(Oc3cccc(NC(=O)c4ccc(OCCN5CCOCC5)cc4)c3)cc21 + N=C(N)NC(=N)NCCc1ccccc1 [Phenformin] (partner 250 µM)
Procedure, shortened: as §1

[3] = compound: CCC1=CN=CN=C1N2CCN(CC2)CC3=NC4=C(N3)C=C(C=C4)C(F)(F)F + CS(=O)(=O)N1CCN(Cc2cc3nc(-c4cccc5[nH]ncc45)nc(N4CCOCC4)c3s2)CC1 [Pictilisib] (partner 1 µM)
Procedure, shortened: as §1

Mirin + Crizotinib = compound: N=C1NC(=O)/C(=C/c2ccc(O)cc2)S1 [Mirin] + C[C@@H](Oc1cc(-c2cnn(C3CCNCC3)c2)cnc1N)c1c(Cl)ccc(F)c1Cl [Crizotinib] (partner 1 µM)
Procedure, shortened: as §1

Cell Line | relative viability ([1]; first compound 0.04 µM) | relative viability ([1]; first compound 0.1265 µM) | relative viability ([1]; first compound 0.4 µM) | relative viability ([1]; first compound 1.265 µM) | relative viability ([1]; first compound 4 µM) | relative viability ([2]; first compound 0.04 µM) | relative viability ([2]; first compound 0.1265 µM) | relative viability ([2]; first compound 0.4 µM) | relative viability ([2]; first compound 1.265 µM) | relative viability ([2]; first compound 4 µM) | relative viability ([3]; first compound 0.04 µM) | relative viability ([3]; first compound 0.1265 µM) | relative viability ([3]; first compound 0.4 µM) | relative viability ([3]; first compound 1.265 µM) | relative viability ([3]; first compound 4 µM) | relative viability (Mirin + Crizotinib; first compound 0.25 µM) | relative viability (Mirin + Crizotinib; first compound 0.7906 µM) | relative viability (Mirin + Crizotinib; first compound 2.5 µM) | relative viability (Mirin + Crizotinib; first compound 7.906 µM) | relative viability (Mirin + Crizotinib; first compound 25 µM)
LU99A | 0.313 | 0.299 | 0.262 | 0.256 | 0.244 | 0.614 | 0.706 | 0.623 | 0.683 | 0.505 | 0.369 | 0.287 | 0.363 | 0.346 | 0.321 | 0.526 | 0.463 | 0.499 | 0.499 | 0.37
LXF-289 | 1.07 | 1.22 | 1.01 | 1.12 | 0.984 | 0.554 | 0.526 | 0.361 | 0.334 | 0.341 | 0.744 | 0.793 | 0.762 | 0.646 | 0.754 | 0.808 | 0.87 | 0.787 | 0.899 | 0.945
NCI-H23 | 0.33 | 0.3 | 0.359 | 0.253 | 0.177 | 0.879 | 0.798 | 0.662 | 0.61 | 0.532 | 0.58 | 0.439 | 0.41 | 0.348 | 0.432 | 0.403 |  | 0.469 | 0.451 | 0.337
NCI-H322M | 1.14 | 1.01 | 0.935 | 0.661 | 0.702 | 1.12 | 0.982 | 0.632 | 0.557 | 0.579 | 0.581 | 0.484 | 0.507 | 0.381 | 0.524 | 0.797 | 1.04 | 0.874 | 0.905 | 0.756
NCI-H358 | 0.709 | 0.612 | 0.792 | 0.572 | 0.521 | 0.352 | 0.295 | 0.224 | 0.27 | 0.198 | 0.4 | 0.282 | 0.349 | 0.289 | 0.359 | 0.553 | 0.678 | 0.536 | 0.329 | 0.243
NCI-H441 | 0.74 | 0.589 | 0.454 | 0.439 | 0.394 | 0.89 | 0.96 |  | 0.654 | 0.623 | 0.571 | 0.435 | 0.451 | 0.435 | 0.418 | 0.856 | 0.794 | 0.701 | 0.365 | 0.706
NCI-H460 | 0.545 | 0.383 | 0.458 | 0.085 | 0.138 | 0.664 | 0.432 | 0.295 | 0.0979 | 0.0635 | 0.41 | 0.291 | 0.36 | 0.224 | 0.395 | 0.887 | 1.15 | 0.935 | 0.875 | 0.915
NCI-H520 | 0.432 | 0.347 | 0.264 | 0.237 | 0.237 | 0.887 | 0.631 | 0.404 | 0.306 | 0.288 | 0.326 | 0.28 | 0.238 | 0.255 | 0.279 | 0.993 | 0.715 | 0.715 | 0.631 | 0.377
NCI-H596 | 0.622 | 0.666 | 0.739 | 0.739 | 0.585 | 0.898 | 0.77 | 0.598 | 0.531 | 0.661 | 0.399 | 0.366 | 0.396 | 0.327 | 0.413 | 0.953 | 0.891 | 1.08 | 1.07 | 1.09
NCI-H647 | 0.718 | 0.512 | 0.428 | 0.348 | 0.302 | 0.455 | 0.399 | 0.357 | 0.339 | 0.272 |  | 0.433 |  |  | 0.399 | 1.07 | 1.3 | 1.24 | 1.08 | 0.596
NCI-H650 | 0.374 | 0.377 | 0.279 | 0.259 | 0.236 | 0.485 | 0.381 | 0.258 | 0.246 | 0.292 | 0.875 | 0.82 | 0.983 | 0.736 | 0.841 | 0.726 |  | 0.656 |  | 0.673
NCI-H661 | 0.693 | 0.757 | 0.749 | 0.579 | 0.489 | 0.258 | 0.253 | 0.203 | 0.23 | 0.195 | 0.358 | 0.402 | 0.412 |  | 0.366 |  | 1.01 | 0.861 |  | 1.17
NCI-H727 |  | 0.801 | 0.657 | 0.487 | 0.59 | 0.793 | 0.694 | 0.499 | 0.588 | 0.529 | 0.521 | 0.377 | 0.29 |  | 0.382 | 1.1 | 0.98 | 0.799 | 1.04 | 0.659
NCI-H838 | 0.405 | 0.347 | 0.383 | 0.221 | 0.222 | 0.501 | 0.285 | 0.201 | 0.227 | 0.222 | 0.507 | 0.531 | 0.41 | 0.258 | 0.482 | 0.895 | 0.918 | 0.834 | 0.906 | 0.681
NCI-H1355 | 0.731 | 0.832 | 0.739 | 0.649 | 0.61 | 0.53 | 0.426 | 0.261 | 0.24 | 0.227 | 0.541 | 0.414 | 0.361 | 0.293 | 0.453 | 1.07 | 1.18 | 1.02 | 1.04 | 1.1
NCI-H1437 | 0.696 | 0.624 | 0.591 | 0.485 | 0.49 | 0.321 | 0.312 | 0.239 | 0.295 | 0.288 | 0.511 | 0.404 | 0.395 | 0.336 | 0.439 | 0.9 | 0.936 | 0.744 | 0.898 | 0.774
NCI-H1650 | 0.74 | 0.849 | 0.744 | 0.696 | 0.715 | 0.47 | 0.382 | 0.229 | 0.397 | 0.369 | 0.525 | 0.586 | 0.558 | 0.306 | 0.818 | 0.928 | 0.959 | 0.952 | 1.11 | 1.16
